Measurements from PubChem BioAssay (NCI).
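Cultured in 96-well plates, cells were exposed to test compound for 48 hours across five concentrations. GI50 is the concentration that inhibits growth by half. TGI denotes the concentration required for complete inhibition of growth.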

Legend:
Assay in all cases: DTP human tumour cell line panel, 48 h
786-0 renal = tested on: 786-0 renal
A549 NSCLC = tested on: A549 NSCLC
ACHN renal = tested on: ACHN renal
BT-549 breast = tested on: BT-549 breast
CCRF-CEM leukemia = tested on: CCRF-CEM leukemia
COLO 205 colon = tested on: COLO 205 colon
DU-145 prostate = tested on: DU-145 prostate
EKVX NSCLC = tested on: EKVX NSCLC
HCC-2998 colon = tested on: HCC-2998 colon
HCT-116 colon = tested on: HCT-116 colon
HCT-15 colon = tested on: HCT-15 colon
HL-60(TB) leukemia = tested on: HL-60(TB) leukemia
HOP-62 NSCLC = tested on: HOP-62 NSCLC
HOP-92 NSCLC = tested on: HOP-92 NSCLC
HS 578T breast = tested on: HS 578T breast
HT29 colon = tested on: HT29 colon
IGROV1 ovarian = tested on: IGROV1 ovarian
K-562 leukemia = tested on: K-562 leukemia
KM12 colon = tested on: KM12 colon
LOX IMVI melanoma = tested on: LOX IMVI melanoma
M14 melanoma = tested on: M14 melanoma
MALME-3M melanoma = tested on: MALME-3M melanoma
MCF7 breast = tested on: MCF7 breast
MDA-MB-231 breast = tested on: MDA-MB-231 breast
MDA-MB-435 = tested on: MDA-MB-435
MOLT-4 leukemia = tested on: MOLT-4 leukemia
NCI-H23 lung = tested on: NCI-H23 lung
NCI-H460 lung = tested on: NCI-H460 lung
NCI-H522 lung = tested on: NCI-H522 lung
NCI/ADR-RES ovarian = tested on: NCI/ADR-RES ovarian
OVCAR-3 ovarian = tested on: OVCAR-3 ovarian
OVCAR-4 ovarian = tested on: OVCAR-4 ovarian
OVCAR-5 ovarian = tested on: OVCAR-5 ovarian
OVCAR-8 ovarian = tested on: OVCAR-8 ovarian
PC-3 prostate = tested on: PC-3 prostate
RXF 393 renal = tested on: RXF 393 renal
SF-268 CNS = tested on: SF-268 CNS
SF-295 CNS = tested on: SF-295 CNS
SK-MEL-2 melanoma = tested on: SK-MEL-2 melanoma
SK-MEL-28 melanoma = tested on: SK-MEL-28 melanoma
SK-MEL-5 melanoma = tested on: SK-MEL-5 melanoma
SK-OV-3 ovarian = tested on: SK-OV-3 ovarian
SN12C renal = tested on: SN12C renal
SNB-19 CNS = tested on: SNB-19 CNS
SNB-75 CNS = tested on: SNB-75 CNS
SR leukemia = tested on: SR leukemia
SW-620 colon = tested on: SW-620 colon
T-47D breast = tested on: T-47D breast
TK-10 renal = tested on: TK-10 renal
U251 CNS = tested on: U251 CNS
UACC-257 melanoma = tested on: UACC-257 melanoma
UACC-62 melanoma = tested on: UACC-62 melanoma
UO-31 renal = tested on: UO-31 renal
A498 renal = tested on: A498 renal
CAKI-1 renal = tested on: CAKI-1 renal
NCI-H226 lung = tested on: NCI-H226 lung
RPMI-8226 leukemia = tested on: RPMI-8226 leukemia
SF-539 CNS = tested on: SF-539 CNS

Structure (SMILES): CC[C@]1(Cc2ccc(OC)c(OC)c2)C=[N+]([O-])O[C@H](OC2CCCC2(c2ccccc2)c2ccccc2)[C@@H]1OC(C)=O (some centres not stated)
- TGI (786-0 renal): 3.67 µM
- TGI (A549 NSCLC): 18.8 µM
- TGI (ACHN renal): 10.2 µM
- TGI (BT-549 breast): 27.9 µM
- TGI (CCRF-CEM leukemia): > 100 µM
- TGI (COLO 205 colon): 12 µM
- TGI (DU-145 prostate): 13.1 µM
- TGI (EKVX NSCLC): 25.3 µM
- TGI (HCC-2998 colon): 7.71 µM
- TGI (HCT-116 colon): 6.16 µM
- TGI (HCT-15 colon): 15.8 µM
- TGI (HL-60(TB) leukemia): 18.8 µM
- TGI (HOP-62 NSCLC): 29.4 µM
- TGI (HOP-92 NSCLC): 54.7 µM
- TGI (HS 578T breast): 46.5 µM
- TGI (HT29 colon): 4.55 µM
- TGI (IGROV1 ovarian): 10.6 µM
- TGI (K-562 leukemia): > 27.7 µM
- TGI (KM12 colon): 8.89 µM
- TGI (LOX IMVI melanoma): 6.47 µM
- TGI (M14 melanoma): 14.9 µM
- TGI (MALME-3M melanoma): 4.83 µM
- TGI (MCF7 breast): 8 µM
- TGI (MDA-MB-231 breast): > 41.3 µM
- TGI (MDA-MB-435): 7 µM
- TGI (MOLT-4 leukemia): > 23.8 µM
- TGI (NCI-H23 lung): 19.9 µM
- TGI (NCI-H460 lung): 20.7 µM
- TGI (NCI-H522 lung): 9.77 µM
- TGI (NCI/ADR-RES ovarian): 14.8 µM
- TGI (OVCAR-3 ovarian): 4.13 µM
- TGI (OVCAR-4 ovarian): 25.5 µM
- TGI (OVCAR-5 ovarian): 44.2 µM
- TGI (OVCAR-8 ovarian): 7.98 µM
- TGI (PC-3 prostate): 18.4 µM
- TGI (RXF 393 renal): 4.35 µM
- TGI (SF-268 CNS): 11.4 µM
- TGI (SF-295 CNS): 17.5 µM
- TGI (SK-MEL-2 melanoma): 14.7 µM
- TGI (SK-MEL-28 melanoma): 4.81 µM
- TGI (SK-MEL-5 melanoma): 11.9 µM
- TGI (SK-OV-3 ovarian): 50.2 µM
- TGI (SN12C renal): > 39.3 µM
- TGI (SNB-19 CNS): 18.5 µM
- TGI (SNB-75 CNS): 9.62 µM
- TGI (SR leukemia): > 100 µM
- TGI (SW-620 colon): > 100 µM
- TGI (T-47D breast): 12.4 µM
- TGI (TK-10 renal): 10.8 µM
- TGI (U251 CNS): > 62 µM
- TGI (UACC-257 melanoma): 19.2 µM
- TGI (UACC-62 melanoma): 12.7 µM
- TGI (UO-31 renal): 12.6 µM

Structure (SMILES): O=C1C(N2CC2)=C(N2CC2)C(=O)C(N2CC2)=C1N1CC1
- GI50 (786-0 renal): < 0.0285 µM
- TGI (786-0 renal): 0.984 µM
- GI50 (A498 renal): 0.348 µM
- TGI (A498 renal): 1.19 µM
- GI50 (A549 NSCLC): 0.059 µM
- TGI (A549 NSCLC): 0.428 µM
- GI50 (ACHN renal): < 0.0179 µM
- TGI (ACHN renal): 0.351 µM
- GI50 (BT-549 breast): 0.318 µM
- TGI (BT-549 breast): 1.53 µM
- GI50 (CAKI-1 renal): 0.0371 µM
- TGI (CAKI-1 renal): 2.18 µM
- GI50 (CCRF-CEM leukemia): 1.82 µM
- TGI (CCRF-CEM leukemia): > 100 µM
- GI50 (COLO 205 colon): 0.163 µM
- TGI (COLO 205 colon): 0.404 µM
- TGI (DU-145 prostate): 0.487 µM
- GI50 (EKVX NSCLC): 1.7 µM
- TGI (EKVX NSCLC): 6.88 µM
- GI50 (HCC-2998 colon): 0.168 µM
- TGI (HCC-2998 colon): 0.569 µM
- GI50 (HCT-15 colon): 0.15 µM
- TGI (HCT-15 colon): 0.901 µM
- GI50 (HL-60(TB) leukemia): 0.201 µM
- TGI (HL-60(TB) leukemia): 8.64 µM
- GI50 (HOP-62 NSCLC): 0.0822 µM
- TGI (HOP-62 NSCLC): 1.05 µM
- GI50 (HOP-92 NSCLC): 2.99 µM
- TGI (HOP-92 NSCLC): 29.7 µM
- GI50 (HS 578T breast): 1.28 µM
- TGI (HS 578T breast): 6.21 µM
- GI50 (HT29 colon): 0.181 µM
- TGI (HT29 colon): 15.1 µM
- GI50 (IGROV1 ovarian): 0.312 µM
- TGI (IGROV1 ovarian): 2.38 µM
- GI50 (K-562 leukemia): 0.785 µM
- TGI (K-562 leukemia): > 100 µM
- GI50 (KM12 colon): 0.696 µM
- TGI (KM12 colon): 2.72 µM
- GI50 (LOX IMVI melanoma): < 0.0209 µM
- TGI (LOX IMVI melanoma): 0.307 µM
- GI50 (M14 melanoma): < 0.0211 µM
- TGI (M14 melanoma): 0.199 µM
- GI50 (MALME-3M melanoma): 0.225 µM
- TGI (MALME-3M melanoma): 1.31 µM
- GI50 (MCF7 breast): < 0.0218 µM
- TGI (MCF7 breast): 1.5 µM
- GI50 (MDA-MB-231 breast): 14.9 µM
- TGI (MDA-MB-231 breast): 56.1 µM
- GI50 (MDA-MB-435): 0.706 µM
- TGI (MDA-MB-435): 2.3 µM
- GI50 (MOLT-4 leukemia): 0.765 µM
- TGI (MOLT-4 leukemia): > 100 µM
- GI50 (NCI-H226 lung): 0.157 µM
- TGI (NCI-H226 lung): 0.714 µM
- GI50 (NCI-H23 lung): < 0.0233 µM
- TGI (NCI-H23 lung): 0.245 µM
- TGI (NCI-H460 lung): 0.178 µM
- GI50 (NCI-H522 lung): 0.432 µM
- TGI (NCI-H522 lung): 2.21 µM
- TGI (NCI/ADR-RES ovarian): 1.3 µM
- GI50 (OVCAR-3 ovarian): 1.04 µM
- TGI (OVCAR-3 ovarian): 3.46 µM
- GI50 (OVCAR-4 ovarian): 2.06 µM
- TGI (OVCAR-4 ovarian): 7.65 µM
- GI50 (OVCAR-5 ovarian): 2.29 µM
- TGI (OVCAR-5 ovarian): 6.92 µM
- GI50 (OVCAR-8 ovarian): 0.344 µM
- TGI (OVCAR-8 ovarian): 6.99 µM
- GI50 (PC-3 prostate): 0.863 µM
- TGI (PC-3 prostate): 21.1 µM
- GI50 (RPMI-8226 leukemia): 2.74 µM
- TGI (RPMI-8226 leukemia): 17.2 µM
- GI50 (RXF 393 renal): 0.218 µM
- TGI (RXF 393 renal): 1.01 µM
- GI50 (SF-268 CNS): 0.265 µM
- TGI (SF-268 CNS): 5.31 µM
- GI50 (SF-295 CNS): < 0.0211 µM
- TGI (SF-295 CNS): 1 µM
- GI50 (SF-539 CNS): 0.104 µM
- TGI (SF-539 CNS): 1.24 µM
- GI50 (SK-MEL-28 melanoma): 0.838 µM
- TGI (SK-MEL-28 melanoma): 2.32 µM
- GI50 (SK-MEL-5 melanoma): 0.144 µM
- TGI (SK-MEL-5 melanoma): 0.359 µM
- GI50 (SK-OV-3 ovarian): 0.123 µM
- TGI (SK-OV-3 ovarian): 0.891 µM
- GI50 (SN12C renal): < 0.0228 µM
- TGI (SN12C renal): 1.45 µM
- GI50 (SNB-19 CNS): 0.14 µM
- TGI (SNB-19 CNS): 4.32 µM
- GI50 (SNB-75 CNS): 0.158 µM
- TGI (SNB-75 CNS): 1.11 µM
- GI50 (SR leukemia): 0.0345 µM
- TGI (SR leukemia): > 100 µM
- GI50 (SW-620 colon): 0.419 µM
- TGI (SW-620 colon): 6.09 µM
- GI50 (T-47D breast): 0.659 µM
- TGI (T-47D breast): 23.8 µM
- GI50 (TK-10 renal): 2.59 µM
- TGI (TK-10 renal): > 100 µM
- GI50 (U251 CNS): 0.275 µM
- TGI (U251 CNS): 3.18 µM
- GI50 (UACC-257 melanoma): 0.109 µM
- TGI (UACC-257 melanoma): 0.749 µM
- GI50 (UACC-62 melanoma): 0.101 µM
- TGI (UACC-62 melanoma): 1.13 µM
- GI50 (UO-31 renal): < 0.0304 µM
- TGI (UO-31 renal): 0.606 µM
